Measurements from patent publication US4859452A (priority 1987, dated 1989).
Like-named read-outs stand apart in the source and are kept apart here.

Experiments:
[1] = system: DFMO-Induced Thrombocytopenia; details: rat, in vivo
Procedure: (§1) Central venous catheters were inserted into Fisher 344 male rats. […] This concentration is equimolar to the arginine concentration in 10% Travasol. After 12 days of infusion the rats were sacrificed and platelet counts were determined in peripheral blood.

[2] = human, in vivo
Text: FIG. 4. Platelet counts plotted against days of continuous i.v. DFMO infusion in patients with advanced colorectal carcinoma. […] The paired points are connected by a straight line.
There was no incidence of nausea, vomiting or diarrhea.

[3] = system: MCA sarcoma
[4] = Toxicity of continuous i.v. DFMO infusion for 12 days in tumor-bearing and non-tumor-bearing rats; format: in vivo, rat
Text: FIG. 3. […] Bars indicate standard deviation.
In the above described rat model, a continuous infusion of DFMO was given through a central venous catheter.

[5] = system: ornithine decarboxylase (ODC); details: cited from earlier work
[6] = RBC putrescine in tumor-bearing versus non tumor-bearing rats infused with feeding solutions; details: NTB rats; p<0.05
Text: A methylcholanthrene-induced fibrosarcoma (0.17 g) was implanted as a brei into the right flank under anesthesia and the animals were fed a chow diet for 21 days. When the tumors were at least 1.0 cm in width, two-dimensional measurements with calipers were instituted and the equation, length (cm)×(width [cm])^2 ×1/2=grams of tumor tissue, was used to estimate tumor weight. […] The animals were then allowed to recover overnight and continuous infusions were started the next morning. […] After 6 days of continuous infusion, the animals were sacrificed by aortic bleeding. Liver and tumor were excised and weighed and kept frozen at -70° C. until assays were done. Only viable, nonnecrotic tumor tissue was saved and assayed.

[7] = in words; tumor and RBC
Procedure: After obtaining the blood sample by venipuncture, or some other suitable means, blood hematocrit is determined and the blood is centrifuged for 10 minutes at 500 g. The plasma is removed for albumin determination and the remaining cells are washed with an equal volume of cold 0.9% NaCl and centrifuged at 200 g for 15 minutes. The buffy coat is then carefully aspirated along with the supernatant and discarded. After thoroughly mixing the packed RBC, a 1.0 ml aliquot is extracted for polyamine analysis. While shaking continuously with a Vortex mixer, 2.5 ml of freshly prepared 6% trichloroacetic acid (TCA) is added followed by 60 ul of 100% TCA. This is done to avoid insufficient mixing if 100% TCA is added directly to RBC. The samples are mixed thoroughly for a minimum of 3 minutes and frozen at -70° C. if further extraction steps are performed. The samples are thawed and centrifuged at 200×g for 15 minutes. The supernatant is then transferred to tubes containing 40 ul of concentrated HCl. The samples are washed twice with anhydrous ether and dried. The pellets are dissolved in 100 ul of 0.5 N HCl and centrifuged at 200 g. The clear supernatant is then analyzed for polyamines using, for example, a Durrum D-500 amino acid analyzer.
A methylcholanthrene-induced fibrosarcoma (0.17 g) was implanted as a brei into the right flank under anesthesia and the animals were fed a chow diet for 21 days. […]

[8] = system: DFMO-Induced Thrombocytopenia; assay: Influence of ornithine co-administration on DFMO-induced thrombocytopenia in the rat; details: in words
Procedure: as §1

With `NCCCC(N)(C(=O)O)C(F)F` (stereo not shown) [DFMO, Difluoromethylornithine] the “effect on platelet suppression / platelet count” value [1] was “significant decrease in platelet count as compared with the saline treatment”, the “decreased hearing acuity, patients” value [2] was “two” and the hematocrit [2] was “Significant suppression of the hematocrit was also noted with a trend toward dose related suppression”. For the same compound, the “nausea, vomiting or diarrhea” value [2] was “no incidence”, the “platelet suppression, 8 g dose compared with 6 g dose” value [2] was “significantly greater platelet at the 8 g dose as compared with the 6 g dose” and the “time to resolution of all toxicities after discontinuing infusion” value [2] was “two”. For the same compound, the white cell count [2] was “not affected by either dose”, the tumor growth ([3]; MCA sarcoma) was “reduces the growth rate of an MCA sarcoma but does not produce tumor regression” and the “effect on peripheral platelet counts” value ([3]; rat, in vivo) was “without suppressing peripheral platelet counts”. The “small intestinal mucosa histology” value ([4]; rat, in vivo) was “histological evidence of small intestinal mucosal atrophy”, the “white cell count and hematocrit changes” value ([4]; rat, in vivo) was “not significantly altered” and the clinical toxicity ([4]; rats, 12 day study) was “no significant clinical toxicity”. The ODC inhibition mode [5] was “irreversible inhibitor of ODC”.
With `N=C(N)NCCC[C@H](N)C(=O)O` [arginine] the “increase in RBC putrescine levels versus chow or essential amino acids only” value [6] was “significantly greater (p<0.05) than those receiving chow or essential amino acids only” and the “comparison of ornithine and arginine for increase in polyamine levels” value [7] was “both appeared to promote an increase in tumor-related levels”.
In the case of `NCCC[C@H](N)C(=O)O` [ornithine], the “effect on platelet suppression / platelet count” value [8] is reported as “significant reversal in the platelet suppression”.
